Results reported in PubChem BioAssay (NCI).
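Interpolation was linear, between the two tested concentrations surrounding the appropriate level; five concentrations were tested over 48 hours in 96-well plates. GI50 is the concentration that inhibits growth by half. The concentration for full growth arrest is given as TGI.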

Key:
Assay in all cases: NCI anticancer screen, dose series, 48 h
[1] = system: OVCAR-8 ovarian
[2] = system: HOP-62 NSCLC
[3] = system: SK-MEL-5 melanoma
[4] = system: COLO 205 colon
[5] = system: MCF7 breast
[6] = system: A498 renal
[7] = system: EKVX NSCLC
[8] = system: HCC-2998 colon
[9] = system: NCI-H23 lung
[10] = system: NCI/ADR-RES ovarian

C#CC(=O)Nc1cccc(Nc2nc3c(c(NCc4ccccc4)n2)CCCC3)c1
GI50 [1]: 0.0144 µM | TGI [1]: 1.12 µM | GI50 [2]: 0.0612 µM | TGI [2]: 0.435 µM | GI50 [3]: 1.12 µM | TGI [3]: 2.44 µM | GI50 [4]: 0.401 µM | TGI [4]: 1.14 µM | GI50 [5]: 296 nM | TGI [5]: 1.81 µM | GI50 [6]: 0.115 µM | TGI [6]: 0.918 µM | GI50 [7]: 0.34 µM | TGI [7]: 1.99 µM | GI50 [8]: 1.36 µM | TGI [8]: 2.9 µM

CC(=O)c1c(CBr)n([O-])c2ccccc2[n+]1=O
GI50 [9]: 15.7 µM | TGI [9]: 32.6 µM | GI50 [1]: 18.1 µM | TGI [1]: 40.7 µM | GI50 [2]: 15.6 µM | TGI [2]: 29.7 µM | GI50 [10]: 19.5 µM | TGI [10]: 50.3 µM | GI50 [3]: 10.5 µM | TGI [3]: 22.6 µM | GI50 [4]: 1.81 µM | TGI [4]: 3.63 µM | GI50 [6]: 23.6 µM | TGI [6]: 54.8 µM | GI50 [7]: 13.2 µM | TGI [7]: 30.3 µM | GI50 [8]: 17.6 µM | TGI [8]: 34.5 µM

O=C(/C=C/c1c(O)ccc2ccccc12)c1ccc2ccccc2c1
TGI [9]: > 100 µM | TGI [1]: > 100 µM | TGI [2]: > 100 µM | TGI [4]: > 100 µM | TGI [6]: > 100 µM | TGI [7]: > 100 µM | TGI [8]: > 100 µM

N#CC1Nc2ccccc2[C@@H](O)C1O (some centres not stated)
TGI [9]: > 100 µM | TGI [1]: > 100 µM | TGI [2]: > 100 µM | TGI [10]: > 100 µM | TGI [3]: > 100 µM | TGI [4]: > 100 µM | TGI [5]: > 100 µM | TGI [7]: > 100 µM | TGI [8]: > 100 µM

Cc1ccc(N(CSc2ccc(Cl)cc2)CSc2ccc(Cl)cc2)cc1
GI50 [9]: 2.27 µM | TGI [9]: 10.5 µM | GI50 [1]: 1.55 µM | TGI [1]: > 100 µM | GI50 [2]: 2.71 µM | TGI [2]: 16.4 µM | GI50 [10]: 1.38 µM | TGI [10]: 9.04 µM | GI50 [3]: 1.18 µM | TGI [3]: 2.5 µM | GI50 [4]: 1.84 µM | TGI [4]: 3.38 µM | GI50 [5]: 2250 nM | TGI [5]: 12.1 µM | GI50 [7]: 0.542 µM | TGI [7]: 26 µM | GI50 [8]: 2.57 µM | TGI [8]: 11.7 µM

O=C(CCC(=O)Nc1cccc(Cl)c1)CC(=O)c1ccc(Cl)cc1
TGI [9]: > 100 µM | TGI [1]: > 100 µM | TGI [2]: > 100 µM | TGI [4]: > 100 µM | TGI [8]: > 100 µM

O=C(Nc1ccc([N+](=O)[O-])cc1)C1C(=O)C(=O)N(c2ccc([N+](=O)[O-])cc2)C1=O (configuration not stated)
TGI [9]: > 100 µM | TGI [1]: > 100 µM | TGI [2]: > 100 µM | TGI [3]: > 100 µM | TGI [4]: > 100 µM | TGI [6]: > 100 µM | TGI [7]: > 100 µM | TGI [8]: > 100 µM

CCOC(=O)c1[nH]c(COC(C)=O)c(CCCOC(C)=O)c1CCCOC(C)=O
TGI [9]: > 100 µM | TGI [1]: > 100 µM | TGI [2]: > 100 µM | TGI [4]: > 100 µM | TGI [6]: > 100 µM | TGI [7]: > 100 µM | TGI [8]: > 100 µM

COc1ccccc1NC(=O)C1=C(C)NC(C)=C(C(=O)Nc2ccccc2OC)C1c1ccc([N+](=O)[O-])cc1
TGI [9]: > 100 µM | TGI [1]: > 100 µM | TGI [2]: > 100 µM | TGI [3]: > 100 µM | TGI [4]: > 100 µM | TGI [6]: > 100 µM | TGI [7]: > 100 µM

CCOC(=O)CCc1c(C)c2c(OC(C)=O)cc(OC(C)=O)cc2oc1=O
TGI [9]: > 100 µM | TGI [1]: > 100 µM | TGI [2]: > 100 µM | TGI [4]: > 100 µM | TGI [7]: > 100 µM | TGI [8]: > 100 µM

O=C1CSC(Cc2nc3ccccc3[nH]2)=N1
TGI [9]: 43.8 µM | TGI [1]: 74.9 µM | TGI [2]: 44.1 µM | TGI [3]: 26.6 µM | TGI [4]: 50 µM | TGI [6]: 10.4 µM | TGI [7]: 75.6 µM | TGI [8]: 36.3 µM

O=C(O)c1c(-c2nccc3ccccc23)[nH]c(-c2ccccc2)c1S(=O)(=O)O
TGI [9]: > 100 µM | TGI [1]: > 100 µM | TGI [2]: > 100 µM | TGI [10]: > 100 µM | TGI [3]: > 100 µM | TGI [4]: > 100 µM | TGI [5]: > 100 µM | TGI [6]: > 100 µM | TGI [7]: > 100 µM

O=[N+]([O-])c1ccc(-n2nnc(C3=NCCCN3)c2-c2ccc(Cl)cc2)cc1
TGI [9]: > 100 µM | TGI [1]: > 100 µM | TGI [2]: > 100 µM | TGI [3]: > 100 µM | TGI [4]: > 100 µM | TGI [6]: > 100 µM | TGI [7]: > 100 µM | TGI [8]: > 100 µM

O=C(CCC/C(CC(=O)c1ccc(Br)cc1)=N\O)Nc1ccccc1
TGI [9]: > 100 µM | TGI [1]: > 100 µM | TGI [2]: > 100 µM | TGI [3]: > 100 µM | TGI [4]: > 100 µM | TGI [7]: > 100 µM | TGI [8]: > 100 µM

COC(=O)C12C3C4C5(C(=O)OC)C(C1C35C(=O)N(C(C)C)C(C)C)C42C(=O)N(C(C)C)C(C)C (configuration not stated)
TGI [9]: > 50 µM | TGI [1]: > 50 µM | TGI [2]: > 50 µM | TGI [3]: > 50 µM | TGI [4]: > 50 µM | TGI [6]: > 50 µM | TGI [7]: > 50 µM | TGI [8]: > 50 µM

O=C(CCCN1CC=C(n2c(=O)[nH]c3ccccc32)CC1)c1ccc(F)cc1
GI50 [9]: 37.6 µM | TGI [9]: > 100 µM | GI50 [1]: 32.9 µM | TGI [1]: > 100 µM | GI50 [2]: 57.6 µM | TGI [2]: > 100 µM | GI50 [10]: 22.9 µM | TGI [10]: > 100 µM | GI50 [3]: 14.9 µM | TGI [3]: 28.6 µM | GI50 [4]: 25 µM | TGI [4]: 75.5 µM | GI50 [5]: 31100 nM | TGI [5]: > 100 µM | GI50 [7]: 16.7 µM | TGI [7]: 80.1 µM | GI50 [8]: 48 µM | TGI [8]: > 100 µM

Cc1cn2c(/C=C3/C(=O)Nc4ccccc43)c(-c3ccc(Cl)cc3)nc2s1
GI50 [1]: 10.2 µM | TGI [1]: 23.6 µM | GI50 [2]: 8.46 µM | TGI [2]: 15.3 µM | GI50 [3]: 9.06 µM | TGI [3]: 16 µM | GI50 [4]: 10.4 µM | TGI [4]: 22.2 µM | GI50 [5]: 6900 nM | TGI [5]: 19.7 µM | GI50 [6]: 10.6 µM | TGI [6]: 23.6 µM | GI50 [7]: 8.73 µM | TGI [7]: 18.8 µM

CC(=O)Oc1ccccc1C(=O)N=C1[Se]CCCN1C(=O)c1ccccc1OC(C)=O
GI50 [9]: 2.72 µM | TGI [9]: 7.78 µM | GI50 [2]: 1.61 µM | TGI [2]: 3.01 µM | GI50 [10]: 2.92 µM | TGI [10]: 8.09 µM | GI50 [3]: 2.01 µM | TGI [3]: 4.13 µM | GI50 [4]: 3.08 µM | TGI [4]: 10.1 µM | GI50 [5]: 2790 nM | TGI [5]: 10.8 µM | GI50 [8]: 3.42 µM | TGI [8]: 15.6 µM

NC1CCCC[C@H]1N.N[C@@H]1CCCC[C@@H]1N.O=C(P(=O)([O-])[O-])P(=O)([O-])[O-].[Pt+4].[Pt+4]
GI50 [9]: > 100 µM | TGI [9]: > 100 µM | GI50 [1]: > 100 µM | TGI [1]: > 100 µM | GI50 [2]: > 100 µM | TGI [2]: > 100 µM | GI50 [3]: > 100 µM | TGI [3]: > 100 µM | GI50 [4]: > 100 µM | TGI [4]: > 100 µM | GI50 [6]: > 100 µM | TGI [6]: > 100 µM | GI50 [7]: > 100 µM | TGI [7]: > 100 µM | GI50 [8]: > 100 µM | TGI [8]: > 100 µM

COc1cc2c(cc1OCc1ccccc1)CNCC2
TGI [9]: > 100 µM | TGI [1]: > 100 µM | TGI [2]: > 100 µM | TGI [3]: > 100 µM | TGI [4]: > 100 µM | TGI [6]: > 100 µM | TGI [7]: > 100 µM | TGI [8]: > 100 µM

CC(C)(C)C(=O)/C=C/c1ccc(Oc2ccccc2)cc1
TGI [1]: > 100 µM | TGI [2]: 86.4 µM | TGI [3]: 32.5 µM | TGI [6]: 32.7 µM | TGI [7]: 39.1 µM | TGI [8]: > 100 µM
